Source: patent US20070254312A1, “Protein Kinase Inhibitors and Methods for Identiying Same” (priority 2004, published 2007)
Starred links: 1 amine or outer side, 2 acyl side, 3 side chain; linkers in the order of their positions; H or OH if unused. Non-standard residues stand in square brackets, D forms with d. Residues, ends and D or L forms follow the SMILES beside them. *: point of attachment. Benzoyl(4-(pyrrol-1-yl)) = O=C(c1ccc(-n2cccc2)cc1)*; Phenylacetyl(3,4-Cl2) = O=C(Cc1ccc(Cl)c(Cl)c1)*; Cysteamide = C(CS[*:3])N[*:1]; Dap = NC[C@H](N)C(=O)O

Assays:
PKC β1 = PKC β1 (Homo sapiens, UniProt P05771); settings: literature values; relative to most potently inhibited isoform (=1); cited from earlier work
PKCε = biological target: T1, PKCε (Homo sapiens, UniProt Q02156); set-up: purchased Panvera; settings: literature values; relative to most potently inhibited isoform (=1); cited from earlier work
T1 sequence (Q02156 1-737): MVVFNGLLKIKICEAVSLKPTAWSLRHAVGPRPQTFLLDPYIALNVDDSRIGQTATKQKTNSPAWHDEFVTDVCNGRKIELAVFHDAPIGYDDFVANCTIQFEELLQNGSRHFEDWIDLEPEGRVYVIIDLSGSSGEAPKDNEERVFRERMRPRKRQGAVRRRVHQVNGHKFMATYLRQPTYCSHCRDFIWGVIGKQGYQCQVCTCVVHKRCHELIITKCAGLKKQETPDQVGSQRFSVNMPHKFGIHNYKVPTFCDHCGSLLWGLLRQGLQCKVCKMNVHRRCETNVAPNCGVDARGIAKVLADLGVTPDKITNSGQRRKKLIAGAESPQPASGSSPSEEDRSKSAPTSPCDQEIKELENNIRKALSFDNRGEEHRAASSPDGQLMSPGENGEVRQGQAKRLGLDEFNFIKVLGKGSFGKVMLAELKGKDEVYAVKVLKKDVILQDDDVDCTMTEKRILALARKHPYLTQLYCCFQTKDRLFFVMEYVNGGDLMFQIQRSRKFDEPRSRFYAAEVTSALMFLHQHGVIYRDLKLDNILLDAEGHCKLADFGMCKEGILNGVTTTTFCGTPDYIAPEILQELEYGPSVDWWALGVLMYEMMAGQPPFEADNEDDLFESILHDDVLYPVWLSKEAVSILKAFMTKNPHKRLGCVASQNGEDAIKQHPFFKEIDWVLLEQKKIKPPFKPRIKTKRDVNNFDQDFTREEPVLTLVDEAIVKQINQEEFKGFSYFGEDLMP

PKCγ = PKCγ (Homo sapiens, UniProt P05129); set-up: purchased Panvera; settings: literature values; relative to most potently inhibited isoform (=1); cited from earlier work
PKCη [1] = biological target: T2, PKCη (Homo sapiens, UniProt P24723); set-up: purchased Panvera; settings: literature values; relative to most potently inhibited isoform (=1); cited from earlier work
PKC ι = biological target: T3, PKC ι (Homo sapiens, UniProt P41743); settings: literature values; relative to most potently inhibited isoform (=1); cited from earlier work
T3 construct: purchased Panvera
T3 sequence (P41743 1-596): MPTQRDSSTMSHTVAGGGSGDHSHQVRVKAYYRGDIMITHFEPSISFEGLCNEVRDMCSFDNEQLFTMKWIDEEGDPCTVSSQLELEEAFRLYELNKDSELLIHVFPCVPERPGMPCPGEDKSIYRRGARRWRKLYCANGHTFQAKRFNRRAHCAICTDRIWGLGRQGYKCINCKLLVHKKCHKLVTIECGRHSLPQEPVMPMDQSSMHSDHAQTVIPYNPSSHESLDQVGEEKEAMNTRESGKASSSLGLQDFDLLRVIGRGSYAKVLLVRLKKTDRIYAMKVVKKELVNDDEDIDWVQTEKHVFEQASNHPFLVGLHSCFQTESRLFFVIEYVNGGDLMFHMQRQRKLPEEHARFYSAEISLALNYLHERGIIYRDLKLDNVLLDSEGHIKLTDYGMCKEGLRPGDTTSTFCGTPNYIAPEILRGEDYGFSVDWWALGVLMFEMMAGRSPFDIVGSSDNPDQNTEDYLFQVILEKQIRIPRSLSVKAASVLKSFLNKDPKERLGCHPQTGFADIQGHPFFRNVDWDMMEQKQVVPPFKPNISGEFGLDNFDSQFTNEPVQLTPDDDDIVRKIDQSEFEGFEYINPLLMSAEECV

PKCζ = biological target: T4, PKCζ (Homo sapiens, UniProt Q05513); set-up: purchased Panvera; settings: literature values; relative to most potently inhibited isoform (=1); cited from earlier work
T4 sequence (Q05513 1-592): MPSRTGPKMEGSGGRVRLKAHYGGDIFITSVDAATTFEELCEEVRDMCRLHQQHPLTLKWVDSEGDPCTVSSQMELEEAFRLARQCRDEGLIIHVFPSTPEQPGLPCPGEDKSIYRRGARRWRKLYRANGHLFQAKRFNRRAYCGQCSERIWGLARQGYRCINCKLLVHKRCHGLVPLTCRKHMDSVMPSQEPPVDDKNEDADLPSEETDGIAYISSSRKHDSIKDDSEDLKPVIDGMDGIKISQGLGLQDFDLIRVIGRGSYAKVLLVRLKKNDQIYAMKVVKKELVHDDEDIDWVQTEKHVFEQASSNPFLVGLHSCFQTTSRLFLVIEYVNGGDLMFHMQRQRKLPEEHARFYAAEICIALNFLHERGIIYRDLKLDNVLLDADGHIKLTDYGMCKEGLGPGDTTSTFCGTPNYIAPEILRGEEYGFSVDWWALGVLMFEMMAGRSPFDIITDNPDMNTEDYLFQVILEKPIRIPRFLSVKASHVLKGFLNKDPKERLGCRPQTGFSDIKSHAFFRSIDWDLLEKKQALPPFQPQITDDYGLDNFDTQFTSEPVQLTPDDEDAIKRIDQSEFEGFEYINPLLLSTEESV

PKCβ = biological target: T5, PKCβ (Homo sapiens, UniProt P05771); experiment: PKC isoform assay, Example 1; format: biochemical
T5 construct: purchased Pan Vera
Procedure: Protein Kinase C Assay (general). The peptides […] (for PKC α, β and γ) and acetyl-[…] (for PKC ε and ζ) were used as substrates. […] Total reaction volume was 50 μL. […] Following an additional 5 min incubation at ambient temperature, 75 μL from each reaction well was transferred into each well of a Unifilter (P81 cellulose phosphate paper) assay plate and washed four times with 0.1% phosphoric acid in water. […] IC50 values were calculated using GraFit (Erithacus Software Limited) and Ki values were calculated using Enzyme Kinetics, SigmaPlot (SPSS Inc.)

PKCδ [2] = biological target: T6, PKCδ (Homo sapiens, UniProt Q05655); set-up: purchased Panvera; settings: literature values; relative to most potently inhibited isoform (=1); cited from earlier work
PKCθ = PKCθ (Homo sapiens, UniProt Q04759); experiment: PKC isoform assay, Example 1; format: biochemical; set-up: purchased Pan Vera
Description: (§1) Protein Kinase C Assay (general). The peptides Ac-Ser-Phe-Arg-Arg-Arg-NH2 (for PKC α, β and γ) and acetyl-[…]NH2 (for PKC ε and ζ) were used as substrates.

PKCδ [3] = biological target: T6, PKCδ; experiment: PKC isoform assay, Example 1; format: biochemical; set-up: purchased Pan Vera
Description: as §1

PKCη [4] = biological target: T2, PKCη; experiment: PKC isoform assay, Example 1; format: biochemical; set-up: purchased Pan Vera
Description: as §1

T2 sequence (P24723 whole entry, canonical isoform): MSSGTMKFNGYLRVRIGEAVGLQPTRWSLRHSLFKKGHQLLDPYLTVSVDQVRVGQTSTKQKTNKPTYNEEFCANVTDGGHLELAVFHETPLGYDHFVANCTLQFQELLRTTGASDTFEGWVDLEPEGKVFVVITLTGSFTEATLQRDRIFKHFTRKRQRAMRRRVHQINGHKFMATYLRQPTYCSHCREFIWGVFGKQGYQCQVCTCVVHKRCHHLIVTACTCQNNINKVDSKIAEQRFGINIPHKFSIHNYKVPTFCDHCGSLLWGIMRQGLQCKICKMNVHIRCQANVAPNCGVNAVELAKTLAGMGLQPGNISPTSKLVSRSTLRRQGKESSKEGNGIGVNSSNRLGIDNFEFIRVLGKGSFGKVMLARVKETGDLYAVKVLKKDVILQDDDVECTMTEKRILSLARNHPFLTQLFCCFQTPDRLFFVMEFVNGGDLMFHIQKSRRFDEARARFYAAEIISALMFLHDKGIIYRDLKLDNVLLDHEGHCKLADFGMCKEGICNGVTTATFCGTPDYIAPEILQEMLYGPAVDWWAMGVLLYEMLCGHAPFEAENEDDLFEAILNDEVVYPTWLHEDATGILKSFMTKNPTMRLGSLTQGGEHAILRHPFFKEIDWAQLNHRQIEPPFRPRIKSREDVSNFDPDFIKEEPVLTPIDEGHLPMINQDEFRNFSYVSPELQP
T6 sequence (Q05655 whole entry, canonical isoform): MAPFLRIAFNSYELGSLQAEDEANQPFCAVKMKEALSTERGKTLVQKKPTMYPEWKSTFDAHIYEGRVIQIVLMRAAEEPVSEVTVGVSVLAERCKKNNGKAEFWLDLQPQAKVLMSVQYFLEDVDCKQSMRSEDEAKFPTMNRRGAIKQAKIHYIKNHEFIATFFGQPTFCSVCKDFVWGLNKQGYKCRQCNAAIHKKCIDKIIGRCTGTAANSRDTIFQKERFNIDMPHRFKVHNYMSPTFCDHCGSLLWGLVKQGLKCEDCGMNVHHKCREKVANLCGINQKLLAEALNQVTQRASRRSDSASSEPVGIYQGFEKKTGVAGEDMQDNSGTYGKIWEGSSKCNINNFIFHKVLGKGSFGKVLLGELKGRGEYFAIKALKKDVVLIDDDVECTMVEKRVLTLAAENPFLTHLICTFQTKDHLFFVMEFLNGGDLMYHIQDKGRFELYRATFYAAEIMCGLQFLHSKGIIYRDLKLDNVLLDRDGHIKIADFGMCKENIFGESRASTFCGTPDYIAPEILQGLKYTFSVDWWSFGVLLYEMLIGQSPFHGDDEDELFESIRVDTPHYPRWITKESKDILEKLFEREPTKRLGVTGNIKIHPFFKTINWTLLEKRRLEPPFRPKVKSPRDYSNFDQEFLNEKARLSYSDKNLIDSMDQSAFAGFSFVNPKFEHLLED
Sequence of PKC β1 (P05771 whole entry, canonical isoform): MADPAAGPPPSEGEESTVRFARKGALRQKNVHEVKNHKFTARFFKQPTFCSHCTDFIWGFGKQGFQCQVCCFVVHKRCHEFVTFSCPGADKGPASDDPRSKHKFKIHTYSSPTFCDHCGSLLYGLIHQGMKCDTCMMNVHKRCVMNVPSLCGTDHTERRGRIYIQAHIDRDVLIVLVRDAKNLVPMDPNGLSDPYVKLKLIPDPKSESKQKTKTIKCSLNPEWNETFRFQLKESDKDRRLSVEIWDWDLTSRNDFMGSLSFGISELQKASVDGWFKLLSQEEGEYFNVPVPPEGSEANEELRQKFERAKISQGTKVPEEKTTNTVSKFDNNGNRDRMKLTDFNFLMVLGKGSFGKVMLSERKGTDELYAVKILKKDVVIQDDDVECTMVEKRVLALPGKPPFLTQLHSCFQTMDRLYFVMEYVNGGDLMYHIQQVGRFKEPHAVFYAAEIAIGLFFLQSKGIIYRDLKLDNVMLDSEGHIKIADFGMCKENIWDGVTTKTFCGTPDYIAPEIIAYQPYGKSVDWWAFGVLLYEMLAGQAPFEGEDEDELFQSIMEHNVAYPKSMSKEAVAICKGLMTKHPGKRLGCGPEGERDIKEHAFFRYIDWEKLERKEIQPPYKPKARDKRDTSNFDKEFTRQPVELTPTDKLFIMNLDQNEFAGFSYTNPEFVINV
T5 sequence (P05771 whole entry, canonical isoform): as above
Sequence of PKCθ (Q04759 whole entry, canonical isoform): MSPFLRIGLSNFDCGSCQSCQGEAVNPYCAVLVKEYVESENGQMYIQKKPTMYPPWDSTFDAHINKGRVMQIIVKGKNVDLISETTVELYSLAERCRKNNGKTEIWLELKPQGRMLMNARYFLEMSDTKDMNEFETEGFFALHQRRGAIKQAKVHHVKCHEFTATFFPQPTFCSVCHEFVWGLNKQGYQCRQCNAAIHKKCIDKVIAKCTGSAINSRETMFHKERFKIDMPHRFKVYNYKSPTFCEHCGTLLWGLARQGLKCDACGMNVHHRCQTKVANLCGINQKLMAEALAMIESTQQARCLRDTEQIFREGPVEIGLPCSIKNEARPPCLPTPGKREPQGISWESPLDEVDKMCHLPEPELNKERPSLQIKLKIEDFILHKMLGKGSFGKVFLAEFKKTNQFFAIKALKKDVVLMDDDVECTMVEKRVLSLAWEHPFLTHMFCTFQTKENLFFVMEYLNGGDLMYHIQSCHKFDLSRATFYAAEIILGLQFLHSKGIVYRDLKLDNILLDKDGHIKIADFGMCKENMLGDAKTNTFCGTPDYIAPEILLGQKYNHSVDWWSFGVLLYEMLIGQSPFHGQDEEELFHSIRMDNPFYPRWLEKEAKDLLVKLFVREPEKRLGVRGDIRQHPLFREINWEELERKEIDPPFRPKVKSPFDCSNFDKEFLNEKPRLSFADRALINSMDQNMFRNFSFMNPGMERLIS

selectivity for PKCα versus PKCβ (PKCβ): 385 fold
selectivity for PKCα versus PKCθ (PKCθ): 1210 fold
selectivity for PKCα versus PKCδ (PKCδ [3]): 2730 fold
selectivity for PKCα versus PKCη (PKCη [4]): 1310 fold
SMILES: CC(C)C[C@H](NC(=O)[C@H](C)NC(=O)CNC(=O)[C@H](CCCNC(=N)N)NC(=O)[C@H](CCCNC(=N)N)NC(=O)[C@H](C)NC(=O)Cc1ccc(Cl)c(Cl)c1)C(=O)N[C@@H](CCCNC(=N)N)C(=O)N[C@@H](CNC(=O)c1ccc(-n2cccc2)cc1)C(=O)N[C@@H](C)C(=O)NCCS [Compound 6] ({Phenylacetyl(3,4-Cl2)}-ARRGALR[Dap](Benzoyl(4-(pyrrol-1-yl)))A-Cysteamide)
Fold selectivity (IC50), PKC β1 (PKC β1): 385 fold
Fold selectivity (IC50), PKC ε (PKCε): 600 fold
Fold selectivity (IC50), PKC γ (PKCγ): 580 fold
Fold selectivity (IC50), PKC η (PKCη [1]): 1310 fold
Fold selectivity (IC50), PKC ι (PKC ι): 940 fold
Fold selectivity (IC50), PKC ζ (PKCζ): 640 fold
Fold selectivity (IC50), PKC δ (PKCδ [2]): 2730 fold
